Patent US9458499B2, “Nucleic acid binding dyes and uses therefor” (PROMEGA CORPORATION, priority 2009, dated 2016)
Structures can show the parent of a compound that is named as a salt.

Columns and labels:
Format in all cases: physicochemical
dsDNA = experiment: Quantum yield, absorbance and emission of dyes with dsDNA; conditions: for Em λ (ds DNA): Example 1; for absorbance λEx dsDNA / emission λmaxEM dsDNA: Table 1
ss DNA = experiment: Relative brightness of stains with ss DNA (protocol of Nygren et al.)
Description: (§1) The relative brightness of certain compounds (Table 2) was determined based on the protocol in Nygren, J., Svanvik, N., Kubista, M. (1998) Biopolymers, Vol. 46, 39-51, which is incorporated by reference herein.

ds DNA = experiment: Relative brightness of stains with ds DNA (protocol of Nygren et al.)
Description: as §1

SMILES | Em λ (ds DNA) (dsDNA) [nm] | quantum yield (Φ) dsDNA (dsDNA) | absorbance λEx dsDNA (dsDNA) [nm] | emission λmaxEM dsDNA (dsDNA) | Relative Brightness ss DNA (ss DNA) | Relative Brightness ds DNA (ds DNA)
CN(C)CCCN(CCCN(C)C)C1=C/C(=C\c2sc3cccc4c3[n+]2CCC4)c2ccccc2N1c1ccccc1 [PBI 3646, 1-((2-(Bis(3-(dimethylamino)propyl)amino)-1-phenylquinolin-4(1H)-ylidene)methyl)-7,8-dihydro-6H-thiazolo[5,4,3-ij]quinolin-9-ium] | 531 | 0.43 | 504 | 531 |  | 
CCCN(CCCN(C)C)C1=C/C(=C\c2sc3cccc4c3[n+]2CCC4)c2ccccc2N1c1ccccc1 [PBI 3654, 1-((2-((3-(Dimethylamino)propyl)(propyl)amino)-1-phenylquinolin-4(1H)-ylidene)methyl)-7,8-dihydro-6H-thiazolo[5,4,3-ij]quinolin-9-ium] | 529 | 0.70 | 498 | 529 |  | 
CN(C)CCN(Cc1ccccc1)c1cc(/C=C2/Sc3cccc4c3N2CCC4)c2ccccc2[n+]1-c1ccccc1 [PBI 3666, 2-(benzyl(2-(dimethylamino)ethyl)amino)-4-((5,6-dihydrothiazolo[5,4,3-ij]quinolin-2(4H)-ylidene)methyl)-1-phenylquinolinium trifluoroacetate] |  | 0.34 | 494 | 535 |  | 
CCCCN(CCCN(C)C)c1cc(/C=C2/Sc3cccc4c3N2CCC4)c2ccccc2[n+]1-c1ccccc1 [PBI 3667, 2-(butyl(3-(dimethylamino)propyl)amino)-4-((5,6-dihydrothiazolo[5,4,3-ij]quinolin-2(4H)-ylidene)methyl)-1-phenylquinolinium trifluoroacetate] |  | 0.68 | 494 | 529 |  | 
CN(C)CCCN(CCCN(C)C)C1=C/C(=C\c2sc3cccc4c3[n+]2CCC4)c2ccccc2N1CCCc1ccccc1 [PBI 3675, 1-((2-(bis(3-(dimethylamino)propyl)amino)-1-(3-phenylpropyl)quinolin-4(1H)-ylidene)methyl)-7,8-dihydro-6H-thiazolo[5,4,3-ij]quinolin-9-ium] | 535 | 0.31 | 503 | 535 |  | 
CCN(CC)c1cc(/C=C2\Sc3cccc4c3N2CCC4)c2ccccc2[n+]1-c1ccccc1 [PBI 3676, 2-(diethylamino)-4-((5,6-dihydrothiazolo[5,4,3-ij]quinolin-2(4H)-ylidene)methyl)-1-phenylquinolinium trifluoroacetate] |  | 0.48 | 494 | 527 |  | 
CCCN(CCCN(C)C)c1cc(/C=C2\Sc3cccc4c3N2CCC4)c2ccccc2[n+]1Cc1ccccc1 [PBI 3677, 1-benzyl-4-((5,6-dihydrothiazolo[5,4,3-ij]quinolin-2(4H)-ylidene)methyl)-2-((3-(dimethylamino)propyl)(propyl)amino)quinolinium trifluoroacetate] |  | 0.72 | 494 | 533 |  | 
CCCN(CCCN(C)C)c1cc(/C=C2\Sc3cccc4c3N2CCC4)c2ccccc2[n+]1C [PBI 3678, 1-methyl-4-((5,6-dihydrothiazolo[5,4,3-ij]quinolin-2(4H)-ylidene)methyl)-2-((3-(dimethylamino)propyl)(propyl)amino)quinolinium trifluoroacetate] |  | 0.68 | 494 | 529 |  | 
CCCN(CCCN(C)C)c1cc(/C=C2/Sc3cccc4c3N2CCC4)c2ccccc2[n+]1CCCc1ccccc1 [PBI 3679, 4-((5,6-Dihydrothiazolo[5,4,3-ij]quinolin-2(4H)-ylidene)methyl)-2-((3-(dimethylamino)propyl)(propyl)amino)-1-(3-phenylpropyl)quinolinium] | 533 | 0.34 | 499 | 533 |  | 
COc1ccc2c(/C=C3\Sc4cccc5c4N3CCC5)cc(N(CCC[N+](C)(C)C)CCC[N+](C)(C)C)[n+](Cc3ccccc3)c2c1 [PBI 4050, 1-Benzyl-2-(bis(3-(trimethylammonio)propyl)amino)-4-((5,6-dihydrothiazolo[5,4,3-ij]quinolin-2(4H)-ylidene)methyl)-7-methoxyquinolinium] |  |  |  |  | 1.23 | 0.63
COc1ccc2c(/C=C3\Sc4cccc5c4N3CCC5)cc(N(C)C)[n+](Cc3ccccc3)c2c1 [PBI 4051, 1-benzyl-4-((5,6-dihydrothiazolo[5,4,3-ij]quinolin-2(4H)-ylidene)methyl)-2-(dimethylamino)-7-methoxyquinolinium] |  |  |  |  | 1.10 | 0.67
COc1ccc2c(/C=C3\Sc4cccc5c4N3CCC5)cc(N(CCC[N+](C)(C)C)CCC[N+](C)(C)C)[n+](C)c2c1 [PBI 4052, 2-(bis(3-(trimethylammonio)propyl)amino)-4-((5,6-dihydrothiazolo[5,4,3-ij]quinolin-2(4H)-ylidene)methyl)-7-methoxy-1-methylquinolinium] |  |  |  |  | 2.41 | 0.74
CCCN(CCC[N+](C)(C)C)c1cc(/C=C2\Sc3cccc4c3N2CCC4)c2ccc(OC)cc2[n+]1-c1ccccc1 [PBI 4054, 4-((5,6-dihydrothiazolo[5,4,3-ij]quinolin-2(4H)-ylidene)methyl)-7-methoxy-1-phenyl-2-(propyl(3-(trimethylammonio)propyl)amino)quinolinium] |  |  |  |  | 3.10 | 1.19
CCCN(CCCN(C)C)c1cc(/C=C2/Sc3ccccc3N2C)c2ccccc2[n+]1-c1ccccc1 [SYBR Green 1, reference compound] |  |  |  |  |  | 1
CN(C)CCN(C)C1=C/C(=C\c2sc3cccc4c3[n+]2CCC4)c2ccccc2N1c1ccccc1 [compound 3568, 1-((2-((2-(Dimethylamino)ethyl)(methyl)amino)-1-phenylquinolin-4(1H)-ylidene)methyl)-7,8-dihydro-6H-thiazolo[5,4,3-ij]quinolin-9-ium] | 529 | 0.39 | 466 | 529 |  | 
CN1C=C/C(=C\c2sc3cccc4c3[n+]2CCC4)c2ccccc21 [compound 3632, 1-((1-Methylquinolin-4(1H)-ylidene)methyl)-7,8-dihydro-6H-thiazolo[5,4,3-ij]quinolin-9-ium] | 529 | 0.2 | 504 | 529 |  | 
CCCN(CCC[N+](C)(C)C)c1cc(/C=C2\Sc3cccc4c3N2CCC4)c2ccc(OC)cc2[n+]1C [compound 4053, 4-((5,6-dihydrothiazolo[5,4,3-ij]quinolin-2(4H)-ylidene)methyl)-7-methoxy-1-methyl-2-(propyl(3-(trimethylammonio)propyl)amino)quinolinium] |  |  |  |  | 1.82 | 1.26
